Patent publication US20090203707A1, “METHODS FOR TREATING PAIN” (priority 2008, published 2009)
“Also recorded” adds a separate entry of the source. Like-named read-outs stand apart in the source and are kept apart here.

Experiments:
[1] = target: rNav1.8 Na+ channels in ND7-23 cells (Rattus norvegicus, UniProt Q62968); experiment: Whole-cell patch clamp, rNav1.8 INa in ND7-23 cells (Example 2); conditions: for Use-dependent block of rNav1.8 INa: 40 pulses of 10 msec to +50 mV; for Kd: estimated from shift of steady-state inactivation curve (Bean equation)
rNav1.8 Na+ channels in ND7-23 cells, sequence (Q62968 whole entry): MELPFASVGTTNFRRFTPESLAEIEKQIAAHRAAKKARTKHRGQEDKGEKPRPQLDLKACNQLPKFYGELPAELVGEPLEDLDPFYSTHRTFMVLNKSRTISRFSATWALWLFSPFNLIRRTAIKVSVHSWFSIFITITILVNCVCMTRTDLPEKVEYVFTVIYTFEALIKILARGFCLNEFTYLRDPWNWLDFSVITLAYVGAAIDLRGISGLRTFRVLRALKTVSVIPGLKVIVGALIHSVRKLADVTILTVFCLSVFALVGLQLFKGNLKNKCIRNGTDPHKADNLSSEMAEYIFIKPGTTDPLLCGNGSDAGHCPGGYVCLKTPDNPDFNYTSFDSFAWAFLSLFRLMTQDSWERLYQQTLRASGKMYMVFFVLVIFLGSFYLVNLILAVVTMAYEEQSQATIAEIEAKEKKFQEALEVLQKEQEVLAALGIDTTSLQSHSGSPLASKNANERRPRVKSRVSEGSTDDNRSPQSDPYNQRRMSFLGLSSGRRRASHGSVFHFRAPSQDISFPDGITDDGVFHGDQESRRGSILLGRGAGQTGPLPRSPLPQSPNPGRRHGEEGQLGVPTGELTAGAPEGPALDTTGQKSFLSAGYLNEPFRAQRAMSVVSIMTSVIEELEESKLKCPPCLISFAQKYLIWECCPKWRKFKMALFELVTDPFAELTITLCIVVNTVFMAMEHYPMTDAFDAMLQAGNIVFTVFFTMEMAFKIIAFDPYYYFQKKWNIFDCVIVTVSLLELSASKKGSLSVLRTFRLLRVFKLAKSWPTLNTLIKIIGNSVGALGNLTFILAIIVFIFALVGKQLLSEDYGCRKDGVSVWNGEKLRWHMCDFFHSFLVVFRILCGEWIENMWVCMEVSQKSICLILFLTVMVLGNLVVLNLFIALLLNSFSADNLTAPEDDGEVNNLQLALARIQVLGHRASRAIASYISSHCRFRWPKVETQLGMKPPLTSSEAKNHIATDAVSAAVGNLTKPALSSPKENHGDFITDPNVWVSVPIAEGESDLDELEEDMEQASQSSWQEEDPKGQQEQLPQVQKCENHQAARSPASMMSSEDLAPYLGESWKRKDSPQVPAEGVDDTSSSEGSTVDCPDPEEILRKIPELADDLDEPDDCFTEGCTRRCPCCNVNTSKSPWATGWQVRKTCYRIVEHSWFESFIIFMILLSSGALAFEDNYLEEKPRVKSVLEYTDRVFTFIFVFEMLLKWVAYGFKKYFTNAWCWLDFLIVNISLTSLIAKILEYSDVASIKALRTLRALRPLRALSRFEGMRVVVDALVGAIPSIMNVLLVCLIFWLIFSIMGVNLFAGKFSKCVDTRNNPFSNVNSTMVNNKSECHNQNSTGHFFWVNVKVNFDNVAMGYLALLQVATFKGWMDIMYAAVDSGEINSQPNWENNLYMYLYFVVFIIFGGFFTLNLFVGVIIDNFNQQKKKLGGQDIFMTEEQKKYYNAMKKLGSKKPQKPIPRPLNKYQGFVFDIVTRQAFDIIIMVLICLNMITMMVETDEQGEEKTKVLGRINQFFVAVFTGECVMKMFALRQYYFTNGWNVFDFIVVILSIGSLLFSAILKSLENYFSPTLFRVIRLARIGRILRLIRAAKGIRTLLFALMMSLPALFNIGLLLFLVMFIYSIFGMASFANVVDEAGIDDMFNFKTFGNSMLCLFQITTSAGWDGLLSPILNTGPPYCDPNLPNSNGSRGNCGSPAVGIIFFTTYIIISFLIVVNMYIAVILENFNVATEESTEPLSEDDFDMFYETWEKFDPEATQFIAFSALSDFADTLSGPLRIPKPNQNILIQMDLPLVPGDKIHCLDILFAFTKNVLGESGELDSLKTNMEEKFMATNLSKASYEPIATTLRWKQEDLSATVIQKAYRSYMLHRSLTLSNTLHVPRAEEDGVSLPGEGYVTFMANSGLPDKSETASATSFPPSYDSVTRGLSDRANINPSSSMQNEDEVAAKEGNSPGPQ

[2] = test system: hNav1.7 and rNav1.8 Na+ channels; experiment: Rate of development of slow inactivation, stated for hNav1.7 and rNav1.8 together; type: cell-based; conditions: 30 μM
Procedure: The time dependence of development of inactivation of hNav1.7 (−20 mV, FIG. 7A, n=4-5 cells) and rNav1.8 (+20 mV, FIG. 7B, n=4-5 cells) INa in the absence (▪) and presence (□) of 30 μM ranolazine is shown in FIG. 7. For control conditions, the progressive decay of currents with increasing conditioning pulse duration reflects entry of channels into inactivated states. The development of slow inactivation of hNav1.7+β1 and rNav1.8 channels could be fit with double and triple exponential functions, respectively (see Table 6, control, Development of slow inactivation).
As shown previously, (Vijayaragavan et al (2001) J. Neurosci 21:7909-18) the onset of slow inactivation of Nav1.8 channels is rapid when compared to Nav1.7 channels (˜fourfold, see Table 6, control, τF=10.78 and 43.97 msec for Nav1.8 and Nav1.7 channels, respectively). […] The time constants for development of inactivation of hNav1.7 (n=4 cells) and rNav1.8 (n=5 cells) INa with a depolarizing prepulse to −40 mV (hNav1.7) or −20 mV (rNav1.8) in the absence and presence of 30 μM ranolazine are given in Table 6.

[3] = Solubility of Ranolazine in aqueous solutions versus pH; type: physicochemical
[4] = test system: Male Sprague Dawley rats
[5] = target: SCN9A (Nav1.7) Na+ channel, α- and β1 subunits, in HEK293 cells (Homo sapiens, UniProt Q15858); experiment: Whole-cell patch clamp, Nav1.7 peak INa in HEK293 cells (Example 1); conditions: for Mean amplitude of Nav1.7 peak INa, fraction of control: −100 mV to 0 mV, 50 msec
SCN9A (Nav1.7) Na+ channel, α- and β1 subunits, in HEK293 cells, sequence (Q15858 whole entry): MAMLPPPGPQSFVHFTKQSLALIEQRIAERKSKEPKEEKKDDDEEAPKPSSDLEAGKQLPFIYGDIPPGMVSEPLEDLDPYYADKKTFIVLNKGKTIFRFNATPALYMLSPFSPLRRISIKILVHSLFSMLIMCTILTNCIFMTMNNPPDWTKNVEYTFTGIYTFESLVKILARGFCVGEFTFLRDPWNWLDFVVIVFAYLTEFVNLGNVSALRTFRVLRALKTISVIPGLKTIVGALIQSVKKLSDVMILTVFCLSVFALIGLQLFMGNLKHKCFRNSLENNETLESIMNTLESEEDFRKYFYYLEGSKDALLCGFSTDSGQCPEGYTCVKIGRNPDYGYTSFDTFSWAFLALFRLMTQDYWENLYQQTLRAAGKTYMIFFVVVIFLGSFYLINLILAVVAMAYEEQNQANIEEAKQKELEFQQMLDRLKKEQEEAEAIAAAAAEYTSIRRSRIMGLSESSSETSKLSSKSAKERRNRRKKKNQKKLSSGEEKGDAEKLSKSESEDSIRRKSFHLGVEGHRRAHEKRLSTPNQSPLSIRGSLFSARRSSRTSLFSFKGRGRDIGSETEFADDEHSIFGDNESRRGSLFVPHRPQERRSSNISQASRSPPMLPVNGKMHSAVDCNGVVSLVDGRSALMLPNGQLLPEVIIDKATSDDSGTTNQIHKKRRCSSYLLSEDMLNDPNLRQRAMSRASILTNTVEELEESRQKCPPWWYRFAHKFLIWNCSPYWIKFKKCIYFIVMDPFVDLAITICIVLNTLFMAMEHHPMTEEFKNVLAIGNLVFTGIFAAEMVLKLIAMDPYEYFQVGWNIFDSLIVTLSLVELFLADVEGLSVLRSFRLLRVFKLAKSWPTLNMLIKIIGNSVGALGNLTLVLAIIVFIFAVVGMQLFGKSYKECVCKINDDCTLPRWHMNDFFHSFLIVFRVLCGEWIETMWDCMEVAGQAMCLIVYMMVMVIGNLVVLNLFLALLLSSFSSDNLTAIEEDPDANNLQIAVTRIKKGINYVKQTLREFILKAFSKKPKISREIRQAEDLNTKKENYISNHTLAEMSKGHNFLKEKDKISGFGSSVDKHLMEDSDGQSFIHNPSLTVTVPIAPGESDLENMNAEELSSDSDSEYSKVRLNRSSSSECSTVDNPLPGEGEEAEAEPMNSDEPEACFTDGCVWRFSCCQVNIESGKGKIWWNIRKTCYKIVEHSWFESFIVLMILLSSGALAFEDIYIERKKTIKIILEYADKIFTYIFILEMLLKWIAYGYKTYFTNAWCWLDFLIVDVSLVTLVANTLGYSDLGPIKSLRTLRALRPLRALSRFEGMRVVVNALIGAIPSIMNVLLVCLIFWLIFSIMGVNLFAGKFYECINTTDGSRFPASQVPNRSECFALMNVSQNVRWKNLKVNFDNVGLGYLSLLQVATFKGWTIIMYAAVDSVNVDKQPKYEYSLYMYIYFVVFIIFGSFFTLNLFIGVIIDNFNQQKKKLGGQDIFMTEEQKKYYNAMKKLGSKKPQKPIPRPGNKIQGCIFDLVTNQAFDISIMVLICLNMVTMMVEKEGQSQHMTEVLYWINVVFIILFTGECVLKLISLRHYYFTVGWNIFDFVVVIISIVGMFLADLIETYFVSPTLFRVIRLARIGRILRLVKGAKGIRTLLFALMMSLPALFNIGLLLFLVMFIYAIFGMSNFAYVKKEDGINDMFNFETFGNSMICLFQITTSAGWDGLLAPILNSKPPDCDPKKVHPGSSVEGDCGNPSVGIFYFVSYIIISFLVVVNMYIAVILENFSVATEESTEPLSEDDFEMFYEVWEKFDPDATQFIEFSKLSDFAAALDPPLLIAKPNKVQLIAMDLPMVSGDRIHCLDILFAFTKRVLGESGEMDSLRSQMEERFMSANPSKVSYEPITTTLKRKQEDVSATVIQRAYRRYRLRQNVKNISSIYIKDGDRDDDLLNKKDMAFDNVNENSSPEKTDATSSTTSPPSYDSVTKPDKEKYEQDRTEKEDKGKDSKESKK
SCN9A (Nav1.7) Na+ channel, α- and β1 subunits, in HEK293 cells, sequence (Q07699 19-218 partner): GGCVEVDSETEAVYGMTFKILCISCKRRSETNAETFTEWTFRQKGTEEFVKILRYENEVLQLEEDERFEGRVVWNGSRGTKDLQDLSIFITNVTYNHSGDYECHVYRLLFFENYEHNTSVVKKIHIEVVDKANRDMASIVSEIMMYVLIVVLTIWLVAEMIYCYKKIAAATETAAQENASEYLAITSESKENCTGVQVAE

[6] = target: hNav1.7+β1 subunits in HEK293 cells (Homo sapiens, UniProt Q15858); experiment: Whole-cell patch clamp, hNav1.7 INa in HEK293 cells (Example 2); conditions: for Kd: estimated from shift of steady-state inactivation curve (Bean equation); for IC50: IC50 value, block of Nav1.7 INa
hNav1.7+β1 subunits in HEK293 cells, sequence (Q15858 whole entry): as the sequence (Q15858 whole entry) above
hNav1.7+β1 subunits in HEK293 cells, sequence (Q07699 19-218 partner): as the sequence (Q07699 19-218 partner) above

[7] = test system: CFA-induced mechanical allodynia; experiment: CFA-induced mechanical allodynia, electro-von Frey withdrawal threshold; type: in vivo, Male Sprague Dawley rats
[8] = test system: endogenous TTX-S INa in ND7-23 cells; experiment: cells; type: cell-based, rat DRG/mouse neuroblastoma hybrid; conditions: V0, recorded in the absence of TTX
[9] = test system: CFA-induced thermal hyperalgesia; experiment: CFA-induced thermal hyperalgesia, paw withdrawal latency; type: in vivo, Male Sprague Dawley rats; conditions: day 3 after CFA
[10] = 10 μM, 10 sec prepulse, n=6 cells
[11] = 10 μM, 100 msec prepulse, n=4 cells
[12] = Dissociation constant for inactivated state (Kdi)
[13] = Dissociation constant for rested state (Kdr)
[14] = male, Sprague Dawley, rat, in vivo, po
[15] = holding −100 mV to 0 mV, 0.1 Hz
[16] = 10 μM, 10 sec prepulse, n=4 cells

COc1ccccc1OCC(O)CN1CCN(CC(=O)Nc2c(C)cccc2C)CC1 (racemic) [Ranolazine, (±)-N-(2,6-dimethylphenyl)-4-[2-hydroxy-3-(2-methoxyphenoxy)-propyl]-1-piperazineacetamide]
IC50 [1]: 21.5 ± 3.01 µM
Inactivation V1/2 (steady-state intermediate, 1 sec prepulse) ([1]; 1 μM): −42.75 ± 3.93 mV
Inactivation slope factor K (1 sec prepulse) ([1]; 1 μM): 7.38 ± 0.93 mV/e-fold
Inactivation V1/2 (steady-state intermediate, 1 sec prepulse) ([1]; 3 μM): −47.61 ± 4.56 mV
Inactivation slope factor K (1 sec prepulse) ([1]; 3 μM): 7.14 ± 0.61 mV/e-fold
Activation V1/2 ([1]; 10 μM): 4.71 ± 2.58 mV
Activation slope factor K ([1]; 10 μM): 8.55 ± 1.62 mV/e-fold
Inactivation V1/2 (steady-state intermediate, 1 sec prepulse) ([1]; 10 μM): −57.88 ± 5.73 mV
Inactivation slope factor K (1 sec prepulse) ([1]; 10 μM): 7.59 ± 0.79 mV/e-fold
V1/2 of steady-state slow inactivation [1, 10]: −54.57±3.69
k of steady-state slow inactivation [1, 10]: 8.38±0.76
V1/2 of steady-state fast inactivation [1, 11]: −40.66±3.23
k of steady-state fast inactivation [1, 11]: 11.45±1.21
Inactivation V1/2 (steady-state intermediate, 1 sec prepulse) ([1]; 30 μM): −59.52 ± 2.18 mV
Inactivation slope factor K (1 sec prepulse) ([1]; 30 μM): 7.59 ± 1.09 mV/e-fold
Use-dependent block of rNav1.8 INa ([1]; 30 μM, 1 Hz): 60.20±2.04%
Use-dependent block of rNav1.8 INa ([1]; 30 μM, 5 Hz): 67.96±4.68%
Use-dependent block of rNav1.8 INa ([1]; 30 μM, 10 Hz): 70.16±2.09%
Development of slow inactivation, AF ([1]; 30 μM, at +20 mV): 0.53 ± 0.07
Development of slow inactivation, AI ([1]; 30 μM, at +20 mV): 0.25 ± 0.07
Development of slow inactivation, AS ([1]; 30 μM, at +20 mV): 0.09 ± 0.02
Development of slow inactivation, τF ([1]; 30 μM, at +20 mV): 5.59 ± 1.08 ms
Development of slow inactivation, τI ([1]; 30 μM, at +20 mV): 34.11 ± 14.14 ms
Development of slow inactivation, τS ([1]; 30 μM, at +20 mV): 703.24 ± 373.82 ms
Time constant of INa decay (single exponential) ([1]; 30 μM, at +20 mV, n=4 cells): 1.60 ± 0.04 ms
Development of slow inactivation, AF ([1]; 30 μM, at −20 mV): 0.52 ± 0.05
Development of slow inactivation, AI ([1]; 30 μM, at −20 mV): 0.30 ± 0.06
Development of slow inactivation, AS ([1]; 30 μM, at −20 mV): 0.18 ± 0.03
Development of slow inactivation, τF ([1]; 30 μM, at −20 mV): 22.75 ± 2.31 ms
Development of slow inactivation, τI ([1]; 30 μM, at −20 mV): 98.08 ± 13.65 ms
Development of slow inactivation, τS ([1]; 30 μM, at −20 mV): 1203.00 ± 337.50 ms
Steady-state use-dependent block of rNav1.8 INa ([1]; 100 μM, 3, 5, 20 or 200 msec pulses to +50 mV, 5 Hz): 71.69±0.85%
Kd [1, 12]: 0.64 µM
Kd [1, 13]: 22.8 µM
IC50 ([1]; IC50 value, block of Nav1.8 INa, V0.5, holding potential −40 mV): 4.33 ± 0.52 µM
Hill Coefficient, block of Nav1.8 INa ([1]; V0, holding potential −100 mV): [0.90 ± 0.11]
Hill Coefficient, block of Nav1.8 INa ([1]; V0.5, holding potential −40 mV): [0.89 ± 0.09]
Rate of development of slow inactivation, faster than control ([2]; −20 mV (hNav1.7), +20 mV (rNav1.8)): 2-5 fold
Rate of development of slow inactivation, faster than control ([2]; −40 mV (hNav1.7), −20 mV (rNav1.8)): 4-10 fold
USP Solubility Class ([3]; Solution pH 4.81): Freely Soluble
USP Solubility Class ([3]; Solution pH 4.89): Soluble
USP Solubility Class ([3]; Solution pH 4.90): Soluble
USP Solubility Class ([3]; Solution pH 5.04): Soluble
USP Solubility Class ([3]; Solution pH 5.35): Sparingly Soluble
USP Solubility Class ([3]; Solution pH 5.82): Slightly soluble
USP Solubility Class ([3]; Solution pH 6.46): Slightly soluble
USP Solubility Class ([3]; Solution pH 6.73): Very slightly soluble
USP Solubility Class ([3]; Solution pH 7.08): Very slightly soluble
USP Solubility Class ([3]; Solution pH 7.59 (unbuffered water)): Very slightly soluble
USP Solubility Class ([3]; Solution pH 7.79): Very slightly soluble
USP Solubility Class ([3]; Solution pH 12.66): Very slightly soluble
Death ([4]; doses of 100 mg/kg (i.p.)): 50%
Doses at which adverse effects were noted ([4]; male, Sprague Dawley, rat, in vivo, ip): ≥ 100 mg/kg
Time of onset of adverse pulmonary event after drug administration [4, 14]: approximately 1 hour
Time to resolution of adverse pulmonary effect after gavage [4, 14]: ≤ 24 h
Adverse event ([4]; rat, in vivo, po): respiratory strider
Mean amplitude of Nav1.7 peak INa, fraction of control ([5]; 1 μM, 0.1 Hz): 0.9114
Mean amplitude of Nav1.7 peak INa, fraction of control ([5]; 3 μM, 0.1 Hz): 0.7275
Mean amplitude of Nav1.7 peak INa, fraction of control ([5]; 10 μM, 0.1 Hz): 0.4692
Mean amplitude of Nav1.7 peak INa, fraction of control ([5]; 30 μM, 0.1 Hz): 0.327
Block of Nav1.7 peak INa at end of pulse train (pulse 40) ([5]; 100 μM, 40 pulses −100 to 0 mV, 2, 5, 20 or 200 msec, 5 Hz): ~82.72±0.71%
p of logistic fit (Hill coefficient nH) for block of Nav1.7 peak INa [5, 15]: 0.8368
x0 of logistic fit (IC50) for block of Nav1.7 peak INa [5, 15]: 10.3585 μM
Inactivation V1/2 (steady-state intermediate, 1 sec prepulse) ([6]; 1 μM): −78.97 ± 3.09 mV
Inactivation slope factor k (1 sec prepulse) ([6]; 1 μM): 4.80 ± 0.21 mV/e-fold
Inactivation V1/2 (steady-state intermediate, 1 sec prepulse) ([6]; 3 μM): −84.44 ± 3.64 mV
Inactivation slope factor k (1 sec prepulse) ([6]; 3 μM): 4.76 ± 0.11 mV/e-fold
Activation V1/2 ([6]; 10 μM): −33.96 ± 2.06 mV
Activation slope factor k ([6]; 10 μM): 4.77 ± 0.32 mV/e-fold
Inactivation V1/2 (steady-state intermediate, 1 sec prepulse) ([6]; 10 μM): −86.99 ± 2.86 mV
Inactivation slope factor k (1 sec prepulse) ([6]; 10 μM): 4.56 ± 0.1 mV/e-fold
V1/2 of steady-state slow inactivation [6, 16]: −61.39±3.54
k of steady-state slow inactivation [6, 16]: 14.22±2.14
V1/2 of steady-state fast inactivation [6, 11]: −86.15±3.62
k of steady-state fast inactivation [6, 11]: 7.55±0.82
Inactivation V1/2 (steady-state intermediate, 1 sec prepulse) ([6]; 30 μM): −89.07 ± 5.41 mV
Inactivation slope factor k (1 sec prepulse) ([6]; 30 μM): 5.15 ± 0.31 mV/e-fold
Development of slow inactivation, AF ([6]; 30 μM, at −20 mV): 0.24 ± 0.02
Development of slow inactivation, AS ([6]; 30 μM, at −20 mV): 0.56 ± 0.01
Development of slow inactivation, τF ([6]; 30 μM, at −20 mV): 9.14 ± 2.49 ms
Development of slow inactivation, τS ([6]; 30 μM, at −20 mV): 1657.71 ± 180.23 ms
Time constant of INa decay (single exponential) ([6]; 30 μM, at −20 mV, n=4 cells): 0.68 ± 0.15 ms
Development of slow inactivation, AF ([6]; 30 μM, at −40 mV): 0.30 ± 0.02
Development of slow inactivation, AS ([6]; 30 μM, at −40 mV): 0.67 ± 0.02
Development of slow inactivation, τF ([6]; 30 μM, at −40 mV): 23.99 ± 2.92 ms
Development of slow inactivation, τS ([6]; 30 μM, at −40 mV): 1845.75 ± 129.03 ms
Kd [6, 12]: 0.47 µM
Kd [6, 13]: 12.1 µM
IC50 ([6]; V0, holding potential −120 mV): 10.4 ± 1.25 µM
IC50 ([6]; V0.5, holding potential −70 mV): 3.25 ± 0.17 µM
Hill Coefficient, block of Nav1.7 INa ([6]; V0, holding potential −120 mV): [0.84 ± 0.09]
Hill Coefficient, block of Nav1.7 INa ([6]; V0.5, holding potential −70 mV): [1.33 ± 0.08]
Effect on mechanical allodynia (paw sensitivity to mechanical stimulation) ([7]; i.p. 10, 20, 50 mg/kg, 30 minutes after dosing, day 3 after CFA): clearly reduced paw sensitivity to mechanical stimulation in a dose-dependent fashion; also recorded: dose dependent reduction in mechanical allodynia
Dose at which maximum analgesic response was achieved ([7]; oral gavage, plateau to the analgesic response): 100 mg/kg
Analgesic effect at highest oral dose ([7]; p.o. 200 mg/kg): non-significant trend toward a reduction in analgesic effect
Effect on mechanical allodynia ([7]; p.o. 20, 50, 100, 200 mg/kg, 1 hour after gavage, day 3 after CFA): dose dependent reduction in mechanical allodynia
Optimum oral dosing for reduction of mechanical allodynia ([7]; p.o., no additional benefit at higher doses (FIG. 11 legend)): 50 mg/kg
IC50 ([8]; ND7/23, read-out: IC50 value, block of TTX-S INa): 9.05 ± 0.56 µM
Hill Coefficient, block of TTX-S INa [8]: [1.15 ± 0.08]
Effect on paw withdrawal from thermal stimulation ([9]; i.p. 10, 20, 50 mg/kg, 30 minutes after dosing): no significant effect on paw sensitivity was observed; also recorded: no significant effect of treatment on paw withdrawal from thermal stimulation
Effect on paw withdrawal from thermal stimulation ([9]; p.o. 20, 50, 100, 200 mg/kg, 1 hour after gavage): no significant effect of treatment on paw withdrawal from thermal stimulation
